The numbers were not newly measured in PMC11979685, “Synthesis of Derivatives of the Antibiotic Albicidin: The N‐Terminal Fragment as Key to Control Potency and Resistance Mediated by the Binding Protein AlbA” (Chemistry (Weinheim an Der Bergstrasse, Germany), 2025), which cites them from elsewhere.

In brackets after ≈: the same amount, converted by molar mass.

Holding throughout (set-up): method as in PMID 36741192
Series [1] deals with Micrococcus luteus DSM 1790. The note with it: already published elsewhere; cited from earlier work.
The subject of series [2] is Mycobacterium phlei DSM 750. Conditions: already published elsewhere; cited from earlier work.
The target of a further series is E. coli DNA gyrase (Escherichia coli, UniProt P0AES4). The note with it: E. coli gyrase DNA cleavage; already published elsewhere; read-out: CC50 (concentration at half-maximum cleavage); cited from earlier work.
Chain of E. coli DNA gyrase (P0AES4 whole entry): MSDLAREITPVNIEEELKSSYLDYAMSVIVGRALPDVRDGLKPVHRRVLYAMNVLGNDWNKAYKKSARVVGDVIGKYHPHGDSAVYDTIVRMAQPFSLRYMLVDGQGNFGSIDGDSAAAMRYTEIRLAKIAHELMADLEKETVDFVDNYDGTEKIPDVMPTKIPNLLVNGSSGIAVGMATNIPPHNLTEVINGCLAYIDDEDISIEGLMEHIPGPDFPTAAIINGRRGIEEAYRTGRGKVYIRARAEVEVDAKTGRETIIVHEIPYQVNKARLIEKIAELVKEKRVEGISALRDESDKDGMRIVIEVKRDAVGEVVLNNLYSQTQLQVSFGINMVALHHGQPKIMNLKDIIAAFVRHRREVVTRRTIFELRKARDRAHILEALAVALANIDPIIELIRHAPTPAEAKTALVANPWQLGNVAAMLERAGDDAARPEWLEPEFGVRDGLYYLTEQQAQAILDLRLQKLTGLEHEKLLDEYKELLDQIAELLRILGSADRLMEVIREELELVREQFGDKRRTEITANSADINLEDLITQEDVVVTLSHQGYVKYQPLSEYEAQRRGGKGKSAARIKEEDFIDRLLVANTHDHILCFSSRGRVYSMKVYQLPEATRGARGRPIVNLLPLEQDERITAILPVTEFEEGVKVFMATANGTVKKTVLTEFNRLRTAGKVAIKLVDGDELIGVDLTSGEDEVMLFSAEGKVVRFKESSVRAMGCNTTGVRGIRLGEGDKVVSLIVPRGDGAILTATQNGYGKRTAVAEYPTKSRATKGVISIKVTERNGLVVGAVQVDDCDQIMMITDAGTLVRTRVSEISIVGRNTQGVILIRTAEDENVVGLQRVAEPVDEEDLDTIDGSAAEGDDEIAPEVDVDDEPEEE
Another series relates to E. coli. The note with it: E. coli in presence of 50 % human serum; already published elsewhere; cited from earlier work.
Series [3] deals with Salmonella typhimurium TA100. The note with it: already published elsewhere; cited from earlier work.
Another series deals with Bacillus subtilis DSM 10. The note with it: already published elsewhere; cited from earlier work.
Another series deals with E. coli DSM1116. The note with it: already published elsewhere; cited from earlier work.

On to `COc1c(NC(=O)c2ccc(NC(=O)c3ccc(NC(=O)[C@H](Cc4c[nH]nn4)NC(=O)c4ccc(NC(=O)c5ccc6nc(C)ccc6c5)cc4)cn3)c(OC)c2O)ccc(C(=O)O)c1O` [compound 16], for which the “MIC M. luteus” value in series [1] is 0.063 µg/mL (≈ 0.0704 µM). Besides, the “MIC M. phlei” value in series [2] is 0.5 µg/mL (≈ 0.559 µM). Besides, the CC50 on E. coli DNA gyrase was 25 nM. In the series with E. coli, the “MICEc 50%HS” value is 0.5 µg/mL. Moreover, in series [3], the “MIC S. typh.” value is no more than 0.016 µg/mL. In addition, in the series on Bacillus subtilis DSM 10, the “MIC B. sub.” value is 0.063 µg/mL (≈ 0.0704 µM). The “MIC E. coli DSM1116” value in the series on E. coli DSM1116 is 0.016 µg/mL (≈ 0.0179 µM).
